Measured values published in ChEMBL document CHEMBL1909571, “Design, synthesis, and biological activity of a novel series of 2,5-disubstituted furans/pyrroles as HIV-1 fusion inhibitors targeting gp41” (Bioorg Med Chem Lett, 2011).

Tests used:
[1] = test system: Human immunodeficiency virus; experiment: Antiviral activity against HIV 3B infected in MT2 cells assessed as inhibition of viral replication measuring p24 level by ELISA; type: functional, organism-based; details: Human immunodeficiency virus 1, 3B
[2] = Cytotoxicity against human MT2 cells by XTT assay; type: cell-based
[3] = Inhibition of GP41 six-helix bundle formation in HIV 3B after 30 mins by FN-PAGE analysis; parameters: species or system Human immunodeficiency virus 1
[4] = Inhibition of HIV1 3B gp41-mediated fusion of infected human H9 cells to uninfected human MT2 cells by fluorescence assay; type: cell-based; details: Human immunodeficiency virus 1, 3B
[5] = Selectivity index, ratio of CC50 for human MT2 cells to EC50 for HIV 3B infected in MT2 cells; type: toxicity, cell-based; details: read-out: Ratio CC50/EC50

| EC50 [1] | EC50 [3] | Compound | CC50 [2] | EC50 [4] | selectivity ratio [5] |
| --- | --- | --- | --- | --- | --- |
| 0.05 µM | 1.27 µM | O=C(O)c1cc(-c2ccc(/C=C3\SC(=S)N(CCc4ccccc4)C3=O)o2)ccc1Cl | 20.3 µM | 0.75 µM | 406 |
| > 100 µM | > 100 µM | O=C(O)c1cccc(-c2ccc(/C=C3\CC(=O)N(CCc4ccccc4)C3=O)[nH]2)c1 | 127 µM | > 100 µM |  |
| 15.1 µM | 29.7 µM | O=C(O)c1cc(-c2ccc(/C=C3\SC(=O)N(CCc4ccccc4)C3=O)o2)ccc1Cl | 68.2 µM | 26.9 µM | 4.5 |
| 31 µM | 27.8 µM | O=C(O)c1cc(-c2ccc(/C=C3\OC(=S)N(CCc4ccccc4)C3=O)o2)ccc1Cl | 282 µM | 49.6 µM | 9.1 |
| 16.8 µM | 12.9 µM | O=C(O)c1cc(-c2ccc(/C=c3\sc4nc(=O)c(-c5ccccc5)nn4c3=O)o2)ccc1Cl | > 320 µM | 45.9 µM | > 19.1 |
| 54.2 µM | 19 µM | O=C(O)c1cc(-c2ccc(/C=C3\NC(=O)N(CCc4ccccc4)C3=O)o2)ccc1Cl | 78.5 µM | > 100 µM | 1.5 |
| > 100 µM | 3.05 µM | O=C(O)c1cccc(-c2ccc(/C=C3\NC(=O)N(CCc4ccccc4)C3=O)[nH]2)c1 | 75.2 µM | 35.9 µM |  |
| 6.9 µM | 15.6 µM | O=C(O)c1cc(-c2ccc(/C=C3\CC(=O)N(CCc4ccccc4)C3=O)o2)ccc1Cl | 118 µM | 43.6 µM | 17.2 |
| > 100 µM | 5.5 µM | O=C(O)c1cc(-c2ccc(/C=C3\CC(=O)N(CCc4ccccc4)C3=O)[nH]2)ccc1Cl | 74.1 µM | > 100 µM |  |
